Test results reported in patent US7423020B2, “Treatment of mood disorders by administration of SMR1” (Institut Pasteur, priority 2001, dated 2008).
Where a SMILES comes first, the peptide text is derived from it.

What was measured:
[1] = target: T1, NEP (Rattus norvegicus, UniProt P07861); assay: Met-enkephalin degradation by rat spinal cord slices, RIA assay; type: biochemical; conditions: 10 μM; fresh spinal cord slices; 20 min at 25° C.; 10 μM Met-enkephalin
T1 construct: incubations of membrane and fresh tissue slice preparations from nervous tissues; from tissue; host or cells: rat spinal cord (dorsal zone), fresh slices or 100 000 x g membrane fraction
T1 sequence (P07861 1-750): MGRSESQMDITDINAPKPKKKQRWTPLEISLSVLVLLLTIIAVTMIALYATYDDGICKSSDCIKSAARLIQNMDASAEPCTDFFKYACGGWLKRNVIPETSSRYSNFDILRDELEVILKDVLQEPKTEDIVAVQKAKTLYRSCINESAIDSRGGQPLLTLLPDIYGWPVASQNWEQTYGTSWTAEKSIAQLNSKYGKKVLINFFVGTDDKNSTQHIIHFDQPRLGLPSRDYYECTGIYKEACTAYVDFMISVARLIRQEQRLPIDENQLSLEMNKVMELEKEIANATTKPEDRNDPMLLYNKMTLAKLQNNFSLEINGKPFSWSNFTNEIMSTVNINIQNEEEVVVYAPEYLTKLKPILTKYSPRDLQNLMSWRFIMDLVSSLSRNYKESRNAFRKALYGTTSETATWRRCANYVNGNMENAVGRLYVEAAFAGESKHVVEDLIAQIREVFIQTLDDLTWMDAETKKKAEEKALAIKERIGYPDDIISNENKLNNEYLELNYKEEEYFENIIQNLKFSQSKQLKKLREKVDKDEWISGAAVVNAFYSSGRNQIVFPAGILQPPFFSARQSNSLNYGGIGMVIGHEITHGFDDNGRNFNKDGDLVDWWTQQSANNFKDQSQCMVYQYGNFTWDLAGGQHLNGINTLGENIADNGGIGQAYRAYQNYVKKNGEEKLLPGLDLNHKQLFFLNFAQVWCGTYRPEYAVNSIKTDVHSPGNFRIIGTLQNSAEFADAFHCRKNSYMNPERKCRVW
Method: (§1) For the experiments of analysis of the NEP peptidase activity, an ex vivo model using incubations of membrane and fresh tissue slice preparations from nervous tissues that are known to be appropriate for exploring NEP peptidase activity: i.e. the dorsal zone of rat spinal cord, was first developed. […] (NEN, 12.5-25 nM) were used.
(§2) The objective was to measure the NEP-specific endoproteolysis of these substrates.

[2] = target: T1, NEP; assay: 3H-Substance P hydrolysis by rat spinal cord slices; type: biochemical; conditions: 25° C., over 30 min incubation, read-out: inhibition of Substance P degradation
Method: as §1, §2
The C-18 Sep-Pak cartridges (Waters) were used to analyze the hydrolysis of the radiolabeled peptides: they separate compounds according to their differences in polarity. This solid-phase extraction procedure allows isolating the substrate from its metabolites, since the hydrophobic character of the peptide metabolites is reduced or even lost compared to the intact peptide substrate.
The radioactivity of eluted and isolated compounds is determined by liquid scintillation spectrometry.

[3] = test system: male Wistar/AF EOPS rats; assay: Behavioral despair test (forced swimming); type: in vivo, rat
Method: Forty male Wistar/AF EOPS rats (Iffa-Credo Breeding Centre, 69-St-Germain sur l'Arbresle, France), weighing 300 to 320 g, were used. On arrival, the rats were labelled and distributed randomly in pairs into type F polycarbonate cages (48×27×20 cm, U.A.R., 91-Epinay-Sur-Orge, France). The animals were stabled in an air-conditioned animal house, at a temperature of 22-24° C. The rats were given food (M25 croquettes, Ets Pietrement, 77-Provins, France) and drink ad libitum and were subjected to a 12-hour light-darkness cycle.
After one week of familiarization with the laboratory conditions, the rats were weighed and distributed randomly into 3 treatment groups (n=12). The rats of the different groups will all be handled in the same way and under the same conditions.
The behavioral despair test takes place over two sessions: • a 15-minute test session; • a 5-minute retest session, performed 24 hours later.
During the test session, the rat was subjected to forced swimming in a Plexiglas cylinder (20 cm in diameter and 50 cm in height, containing 25 cm of water at 25° C.) and its behavior was recorded over 15 minutes. At the end of the test, the rat was removed from the water, dried gently, treated and then returned to its dwelling cage.
During the retest, 24 hours later, the rat was again placed in the water and its behavior was recorded over 5 minutes.
The recorded variables are the period of immobility during the first 5 minutes of both the test and the retest.
The peptide FG-005 (SMR1-QHNPR) (SEQ ID NO: 1) was suspended at a rate of 500 μg per 5 ml of 0.01N acetic acid, and then diluted with PBS to be administered at doses of 50 and 100 μg/kg via the i.v. route into the dorsal caudal vein of the rat, immediately after the test and 300 and 5 minutes before the retest the following day.
A bilateral probability paired t test was used to compare the two periods of immobility of the test with those of the retest in each of the groups. The results are expressed as an average ±standard error of mean (SEM)(FIG. 4). The statistical and graphical processing was performed using Statview5 and DeltaGraph® Pro 3.5 software.

[4] = Tissue uptake of SMR1-Pentapeptide in vivo; design: species or system rat
[5] = target: T2, purified rabbit kidney NEP (Oryctolagus cuniculus, UniProt P08049); assay: Direct interaction with purified rabbit kidney NEP in vitro; type: binding
T2 construct: using purified rabbit kidney NEP; from tissue; host or cells: rabbit kidney
T2 sequence (P08049 1-750): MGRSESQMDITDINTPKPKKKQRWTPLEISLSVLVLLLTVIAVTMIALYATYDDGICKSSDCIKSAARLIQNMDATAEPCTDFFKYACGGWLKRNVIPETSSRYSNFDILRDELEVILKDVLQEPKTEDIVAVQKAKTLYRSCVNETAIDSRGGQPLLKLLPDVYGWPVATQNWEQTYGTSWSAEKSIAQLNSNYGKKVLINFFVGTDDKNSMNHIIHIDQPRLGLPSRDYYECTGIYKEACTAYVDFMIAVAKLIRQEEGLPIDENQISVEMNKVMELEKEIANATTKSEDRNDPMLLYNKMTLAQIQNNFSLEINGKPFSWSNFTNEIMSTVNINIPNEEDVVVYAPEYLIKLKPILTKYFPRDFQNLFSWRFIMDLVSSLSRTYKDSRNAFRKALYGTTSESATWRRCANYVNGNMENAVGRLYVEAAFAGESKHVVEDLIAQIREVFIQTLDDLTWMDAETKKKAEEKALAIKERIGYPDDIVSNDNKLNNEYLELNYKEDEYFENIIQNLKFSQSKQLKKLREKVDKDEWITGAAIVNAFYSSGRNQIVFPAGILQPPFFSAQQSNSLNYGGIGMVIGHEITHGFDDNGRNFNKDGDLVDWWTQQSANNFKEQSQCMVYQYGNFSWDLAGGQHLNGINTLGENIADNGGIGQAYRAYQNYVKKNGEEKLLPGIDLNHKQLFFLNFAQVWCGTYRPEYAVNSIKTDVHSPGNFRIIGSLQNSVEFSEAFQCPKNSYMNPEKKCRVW

N=C(N)NCCC[C@H](NC(=O)[C@@H]1CCCN1C(=O)[C@H](CC(N)=O)NC(=O)[C@H](Cc1c[nH]cn1)NC(=O)[C@@H](N)CCC(N)=O)C(=O)O [SMR1-QHNPR, QHNPR] (H-QHNPR-OH; N-terminus and C-terminus assumed)
protection of Met-enkephalin from degradation (RIA) [1]: 96% | inhibition at 10 µM [2]: 75% | overall effect in the behavioral despair test ([3]; FG-005 50 and 100 μg/kg i.v., 8-OH-DPAT as reference substance): antidepressant effect | change of period of immobility, retest compared with test ([3]; dose of 50 μg/kg): increase their period of immobility during the retest | change of period of immobility, retest compared with test ([3]; doses of 50 and 100 μg/kg, i.v., immediately after the test and 300 and 5 minutes before the retest): do not increase their periods of immobility during the retest | stability of tissue uptake [4]: pharmacokinetically and biochemically stable in vivo | direct interaction with NEP [5]: direct interaction of rat kidney NEP and SMR1-Pentapeptide was demonstrated
